The values that follow come from patent publication EP2722048B1, “Iron bisglycinate chelate for use in treating anaemia” (Laboratori Baldacci S.p.A., priority 2012, dated 2014).

The test system of series [1] is reticulocytes of the anaemic patient. Briefly: Test 3: cytofluorometric analysis of reticulocytes in blood samples. Conditions: for RET_IMM: immature reticulocytes: limits 0.00-0.50; for RETH: reticulocytes with high RNA content, highly immature: limits 0.0-10.0; for RETM: reticulocytes with average RNA content, immature on average: limits 0.0-40.0; for IRF: Immature Reticulocyte Function: limits 0.000-999.000; for MRV: Mean Reticulocyte Volume: limits 0-9999; for CRC: Corrected Reticulocyte Count: limits 0.75-2.30; for MFI: Mean Fluorescence Intensity: limits 5.0-30.0; for RhC/C: reticulocyte haemoglobin content: limits 28.9-33.9; for RETL: reticulocytes without RNA, poorly immature (or mature): limits 65.0-97.0. Type of series: in vivo. On the procedure:
In order to be able to quantify the increase in reticulocytes, cytofluorometry analyses were conducted on samples of blood taken from the patient both before the treatment with iron bisglycinate chelate (Table 3) and after 20 days of treatment (Table 4).
The cytofluorometric analysis (fluorescence flow cytometry CFM) is conducted here as an assessment of the fluorescence obtained with the step of a laser beam of a sample of cells to be examined; in any case, further conventional techniques can be used for the purpose of the present invention.

In series [2] the test system is patients before the hip arthroplasty operation. The series can be described thus: Test 2: treatment for 10 days after taking 350 ml blood before hip arthroplasty, haematic parameters. It counts as in vivo. Conditions: individual patients, 'Average' row = mean. As to the method: For about 10 days, before the hip arthroplasty operation, blood is usually taken from the patients (350 ml) so as to have available, if necessary, a quantity of blood that is sufficient for an autologous transfusion.
10 days after the blood is removed, the haematic parameters of the various patients are assessed, the intervention is performed and then the treatment with iron bisglycinate chelate continues for another 30 days after surgery.

For series [3] the following is noted: different values of pH of the gastrointestinal tract; cited from earlier work.
The conditions of series [4]: compared with mineral salts, for example iron sulphate; cited from earlier work.
Series [5] concerns patients who had to undergo surgery and who suffered from slight sideropenic anaemia. Particulars: t=0, before treatment, individual patients, 'Average' = mean.
Procedure: An experimental study was conducted on patients who had to undergo surgery and who suffered from slight sideropenic anaemia.
The aim of the treatment with iron salts was to restore and/or increase the haemoglobin level before surgery in such a manner as to minimise morbidity and/or mortality after surgery.
5 patients were treated with 2 effervescent tablets (prepared as in example 1) per day of iron bisglycinate chelate for 30 days, equal to 28 mg of iron ion per day and 5 patients were treated with one tablet per day of iron sulphate equal to 105 mg of iron ion.
Heavy bleeding surgery took place 10 days after the start of treatment with the iron derivative, i.e. both with the iron bisglycinate chelate and with iron sulphate and the treatment with said iron derivative continued for the 20 days following surgery.
In series [6] the test system is patients before the hip arthroplasty operation. Briefly: Test 2: treatment for 10 days after taking 350 ml blood before hip arthroplasty, haematic parameters. Type of series: in vivo. Conditions: administration of iron sulphate; data in the applicant's possession.
Where [7] appears, read: t=20, after 20 days of treatment.

The structures appear in SMILES notation. Where “and” joins values, the source holds several entries; their conditions need not be identical. Equal values may be shown once.

As for `NCC(=O)[O-].NCC(=O)[O-].[Fe+2]` [Iron bisglycinate chelate], in series [1] (after 20 days of treatment versus before the treatment), the “increase in the percentage of immature reticulocytes (RET_IMM)” value came to 75%. In series [1] (t=0, before treatment), the “RET_IMM: immature reticulocytes” value was determined as 0.08%; the “RETH: reticulocytes with high RNA content, highly immature” value was 1.8%; the “RETM: reticulocytes with average RNA content, immature on average” value is given as 9.8%; the “IRF: Immature Reticulocyte Function” value stood at 0.156. Further, in series [1] (t=0, before treatment), the “MRV: Mean Reticulocyte Volume” value is given as 86 µm^3, the “CRC: Corrected Reticulocyte Count” value turned out to be 1.56%, the “MFI: Mean Fluorescence Intensity” value amounted to 15.1% and the “RhC/C: reticulocyte haemoglobin content” value is listed as 28.1 pg. The “RETL: reticulocytes without RNA, poorly immature (or mature)” value in series [1] (t=0, before treatment) amounted to 88.6%. For the same compound, in series [1] (setting [7]), the “RET_IMM: immature reticulocytes” value was 0.14%; the “RETH: reticulocytes with high RNA content, highly immature” value is given as 15.4%; the “RETM: reticulocytes with average RNA content, immature on average” value came to 32.3%; the “IRF: Immature Reticulocyte Function” value is reported as 0.534. In addition, in series [1] (setting [7]), the “MRV: Mean Reticulocyte Volume” value came out at 100 µm^3, the “CRC: Corrected Reticulocyte Count” value amounted to 1.87%, the “MFI: Mean Fluorescence Intensity” value worked out at 29.8% and the “RhC/C: reticulocyte haemoglobin content” value is reported as 29.4 pg. Further, the “RETL: reticulocytes without RNA, poorly immature (or mature)” value in series [1] (setting [7]) is on record as 52.3%. Further, the Haemoglobin in series [2] (t=0, start of treatment after taking 350 ml blood) is 12.5 g/100ml and 13.2 g/100ml (2×) and 12.9 g/100ml (2×) and 13.3 g/100ml and 12.7 g/100ml. In series [2] (t=0), the “% Reticulocytes” value was 1.1% (3×) and 0.6% and 2.1% and 1.4% and 0.8%; the Ferritin is 97 ng/mL and 132 ng/mL and 315 ng/mL and 146 ng/mL and 43 ng/mL and 53 ng/mL and 67 ng/mL; the Sideraemia was 76 µg/100ml and 67 µg/100ml and 58 µg/100ml and 112 µg/100ml and 75 µg/100ml and 87 µg/100ml. In series [2] (t=10days, 2 tablets a day), the “% Reticulocytes” value is 1.5% and 0.9% and 16% and 23% and 1.2% and 25% and 1.7%; the Ferritin is 103 ng/mL and 72 ng/mL and 237 ng/mL and 95 ng/mL and 25 ng/mL and 34 ng/mL and 67 ng/mL; the Haemoglobin was 11.8 g/100ml (2×) and 12.7 g/100ml and 12.2 g/100ml and 12.8 g/100ml and 12.9 g/100ml and 12.1 g/100ml; the Sideraemia was 58 µg/100ml and 120 µg/100ml and 80 µg/100ml and 62 µg/100ml and 65 µg/100ml and 84 µg/100ml and 69 µg/100ml. In addition, the “stability of the bond (hydrolysis)” value in series [3] is listed as “does not hydrolyse”. Further, in series [4], the bioavailability entry is reported as “greater bioavailabilty than mineral salts”.
Regarding `O=S(=O)([O-])[O-].[Fe+2]` [Iron sulphate, reference compound], the Iron in series [5] was 110 µg/100ml and 85 µg/100ml. In series [5] (bisglycinate 28 mg iron ion/day, sulphate 105 mg iron ion/day), the Haemoglobin is 12.5 g/100ml and 11.6 g/100ml. In addition, in series [6], the “average reduction of the haemoglobin after taking 350 ml” value was 1.5 g of Hb.
